In patent US12606833B2, “Modified mini-nucleosome core proteins and use in nucleic acid delivery” (priority 2020, dated 2026):
Where no end group is shown, it is not given here. [ ]: non-standard residue; d: D form. LINKER = not defined here

Columns and labels:
[1] = system: skeletal muscle cells; assay: GFP expression in leg muscle after intramuscular injection (dystrophin immunolabeling); assay type: in vivo, Balb/c mice; details: 17.5 μg per leg, 3-month time point, FIG. 18
Protocol: Balb/c mice were anesthetized by IP injection with Ketamine/Xylazine (90-100 mg/kg+10 mg/kg) and several loaded mini-nucleosomes were injected into both leg muscle at 17.5 μg doses per leg using an insulin syringe (Total dose 35 micrograms per mice). Mice were sacrificed at various time points and leg muscle were obtained for tissue sections. […] One skilled in the art may contemplate combining such domains with other domains known for muscle tropism.
To validate muscle specificity of expression of genes encoded by the nucleic acid cargo, we utilized dystrophin immunolabeling as an endogenous secondary marker. […] Native fluorescence of GFP was obtained in the 486-nm channel of Leica SP5 scope. Dystrophin in red is the RFP channel (555-nm). Untransduced muscle cells in figure also serve as internal control for differentiation between GFP signal and autofluorescence.

[2] = system: retina and RPE cells; assay: GFP expression in retina and RPE after intravitreal injection in mice; assay type: in vivo, Balb/c mice; details: 1.5 micrograms, GFP plasmid, FIGS. 10 and 12
Protocol: In the present Example, Balb/c mice were anesthetized by IP injection with Ketamine/Xylazine (90-100 mg/kg+10 mg/kg) and positioned underneath a microscope. Mice eyes were dilated with topical Tropicamide (1%) and 1 μl of loaded mini-nucleosomes (total dose 1.5 micrograms in mice) were injected into the vitreous cavity using 32 gauge blunt needle passing through the incision made by a 25-gauge needle below the limbus. At various time points, mice were perfused with 10 ml of 1xPBS, and then sacrificed using standard techniques. Mice were enucleated and eyecups were collected and incubated in 4% paraformaldehyde overnight. The eyecups were washed with 1xPBS, then immersed in 15% sucrose for few hours and then in 30% sucrose solution overnight for cryopreservation. The eyecups were then placed in a plastic vial and frozen using OCT compound for cryo-sectioning. 10-micron thick tissue sections were obtained for staining. The retinal sections were mounted with mounting media with or without DAPI, coverslip and sealed. Images were acquired by Leica SP5. For wholemount imaging, eyecups were fixed in 4% paraformaldehyde overnight. Eyecups were washed in 1xPBS, retina was removed and the remaining eyecup or RPE wholemount was processed for staining. The RPE tissue was wholemounted with mounting media, coverslip and sealed. Images were acquired by Leica SP5.

[3] = Transmission Electron Microscopy (TEM) of loaded mini-nucleosomes; assay type: physicochemical; details: luciferase plasmid (SEQ ID NO: 396) condensed with core protein, formulated in water
Protocol: To form loaded mini-nucleosomes represented in FIG. 7, core proteins were synthesized by solid phase synthesis using trifluoroacetate buffers. 200 micrograms of DNA (SEQ ID NO: 396) were added to 1 milligram of lyophilized core proteins and vortexed together, and purified to produce loaded mini-nucleosomes (FIG. 7). Buffer exchange was performed and final formulation of mini-nucleosome was made in sterile, endotoxin free water. 1 microgram of each kind of mini-nucleosomes was diluted in water and then placed on grids that were stained with freshly prepared in 0.75% uranyl acetate in methanol solution for two minutes. Grids were dipped in 100% ethanol and then blotted into lens absorbent paper. The grids were then air-dried for few minutes with film side up and taken for imaging with Hammatsu ORCA HR camera (FIG. 7).

[4] = system: RPE cells; assay: GFP expression in rat retinal tissue after intraocular delivery; assay type: in vivo; details: rat eyes, FIG. 11
Description: To selectively transduce photoreceptors, the present Example utilized core proteins like those of SEQ ID NO:394. […] This neuronal attachment domain has not been previously applied for non-viral vectors to target neurons. The present disclosure provides that this neuronal targeted vector can transduce neurons in the brain via local or systemic administration. The present disclosure further provides for targeting photoreceptor binding and internalization by incorporating lectin binding domains (described in Table 4) in mini-nucleosomes for attachment to photoreceptor extracellular matrix to enhance uptake. […] Moreover, more than one domain could be utilized to selectively transduce a plurality of diverse cell types. This core protein (SEQ ID NO: 390) with integrin binding properties may also be utilized for delivery of nucleic acids to other cell types that express high levels of aVB5 integrin. The present disclosure further provides use of other intra-ocular injection techniques such as subretinal, suprachoroidal, intra-cameral, or topical administration to target photoreceptors, RPE, Mueller cells or other cell types in the retina.

[5] = system: lung epithelium; assay: GFP expression after intranasal delivery (lung sections with CFTR staining, whole lung imaging, trachea); assay type: in vivo, Balb/c mice; details: 5-week post injection, FIGS. 15 and 16
Protocol: In the present Example, Balb/c mice were anesthetized by IP injection with Ketamine/Xylazine (90-100 mg/kg+10 mg/kg) and the anesthetized mice were positioned underneath a microscope for visual of the nasal area for intranasal delivery. 1 μl of loaded mini-nucleosome (SEQ ID NO: 390+GFP plasmid) solution was delivered into the nasal cavity every few seconds until 12 microliters were delivered to each nasal side. Total dose of 25 micrograms was delivered. Following sacrifice, mice lung was processed to obtain 10 micron thick sections. Sections were washed in PBS and incubated in blocking buffer (0.1% TritonX-100, 1% BSA, 3% donkey serum) for 1 hr and then incubated in CFTR antibody (prepared on blocking buffer) blocking buffer overnight at 4 degree Celsius. Next day wash in PBS 3×5 min and incubated in AlexaFlour-555 (Donkey Anti-rabbit IgG secondary) in blocking buffer at RT for 1 hour and washed in PBS 3×5 min. Mounting media was added and coverslip was applied and sealed. Native fluorescence of GFP was obtained in the 486 nm channel of Leica SP5 scope in the 486-nm wavelength and CFTR expression in the 555-nm channel.
In the present Example, whole lung tissue and biodistribution via mini-nucleosome was also evaluated (FIG. 15). […] Whole tissues were placed in the Odyssey imager for detecting GFP native fluorescence.

Row | Substance | GFP fluorescence in muscle tissue sections [1] | GFP expression / uptake in mouse retina and RPE [2] | Shape of loaded mini-nucleosome (TEM) [3] | also measured
1 | KKKRHRKRKRKRKRRRRKKK-[LINKER]-ASSLNIAK-[LINKER]-RRRR (KKKRHRKRKRKRKRRRRKKK[LINKER]ASSLNIAK[LINKER]RRRR; not fully specified; numbers in words are those of the source; reading uncertain; also: linkers of unspecified length between segments (after 20 and 28)) [SEQ ID NO: 389] | didn't exhibit GFP fluorescence |  |  | 
2 | KKKRK-[LINKER]-KTKKK-[LINKER]-AK-[LINKER]-KALKKK-[LINKER]-KKGKKKKRRRRKAAPKK (KKKRK[LINKER]KTKKK[LINKER]AK[LINKER]KALKKK[LINKER]KKGKKKKRRRRKAAPKK; not fully specified; numbers in words are those of the source; reading uncertain; also: linkers of unspecified length between segments (after 5, 10, 12, 18)) [SEQ ID NO: 392] |  | enhanced uptake into the RPE |  | 
3 | KKKRHRKKKKK-[LINKER]-RGD-[LINKER]-KKKK-[LINKER]-NTQIH-[LINKER]-RRRRR-[LINKER]-TPH-[LINKER]-KK (KKKRHRKKKKK[LINKER]RGD[LINKER]KKKK[LINKER]NTQIH[LINKER]RRRRR[LINKER]TPH[LINKER]KK; not fully specified; numbers in words are those of the source; reading uncertain; also: linkers of unspecified length between segments (after 11, 14, 18, 23, 28, 31)) [SEQ ID NO: 391] | sharp green fluorescence in skeletal muscle cells |  | mixture of circular and rod like molecules | 
4 | KKKRK-[LINKER]-NGR-[LINKER]-KRKRKKRHRKKKKRRRRKRHRK-[LINKER]-NGR-[LINKER]-KKK (KKKRK[LINKER]NGR[LINKER]KRKRKKRHRKKKKRRRRKRHRK[LINKER]NGR[LINKER]KKK; not fully specified; numbers in words are those of the source; reading uncertain; also: linkers of unspecified length between segments (after 5, 8, 30, 33)) [SEQ ID NO: 390] |  |  | rod/lobular shaped | GFP expression in rat retinal tissue [4]: transduce RPE cells in rat eyes exclusively; GFP native fluorescence in whole lung tissue / sustained expression [5]: high levels of sustained expression
5 | KKRHRK-[LINKER]-LRE-[LINKER]KRHRKLRRRRRLKRHRKKRHRK-[LINKER]-LRE-[LINKER]-K (KKRHRK[LINKER]LRE[LINKER]KRHRKLRRRRRLKRHRKKRHRK[LINKER]LRE[LINKER]K; not fully specified; numbers in words are those of the source; reading uncertain; also: linkers of unspecified length between segments (after 6, 9, 31, 34)) [SEQ ID NO: 394] |  | transduction into ganglion cells, bipolar cells and photoreceptors |  | 
